What was measured:
[1] = target: T1, synAAAD (synthetic gene based on pkAAAD protein sequence) (Sus scrofa, UniProt P80041); assay: Substrate screen for tryptophan decarboxylation, SynAAAD; assay type: biochemical; design: key: +: a clear ninhydrin-positive spot at the Rf of standard tryptophan derivatives after 16-65 h; (+): a weak spot in the product region; −: no product observed; NR: experiment not run; conditions: tryptophan derivative, PLP, pH 7.5, 37° C.
T1 construct: made in house; host or cells: E. coli (pET-15 vector)
T1 sequence (P80041 1-486): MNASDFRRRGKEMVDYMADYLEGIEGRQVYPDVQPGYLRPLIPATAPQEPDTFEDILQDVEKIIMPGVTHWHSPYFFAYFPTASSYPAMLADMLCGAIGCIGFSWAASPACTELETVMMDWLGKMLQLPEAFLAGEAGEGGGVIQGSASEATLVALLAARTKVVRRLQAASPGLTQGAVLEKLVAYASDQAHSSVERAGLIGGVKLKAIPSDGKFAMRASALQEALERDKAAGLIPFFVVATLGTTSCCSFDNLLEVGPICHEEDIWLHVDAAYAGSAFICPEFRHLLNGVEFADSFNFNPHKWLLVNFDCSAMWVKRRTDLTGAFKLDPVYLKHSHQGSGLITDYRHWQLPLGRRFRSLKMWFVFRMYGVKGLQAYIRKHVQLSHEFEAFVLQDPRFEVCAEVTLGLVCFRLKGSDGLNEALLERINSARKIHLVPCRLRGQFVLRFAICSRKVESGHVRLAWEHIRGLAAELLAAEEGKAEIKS
Description: (§1) A mixture containing 1 μmole of the tryptophan derivative, 0.05 μmole of PLP and 50 μmol of L-serine in 40 mM pH 7.5 KPi buffer was warmed to 37° C., then enzyme solution was added to give a final volume of 1 mL. Aliquots (100 HL) were quenched at intervals and were evaporated in a Savant Speed-vac as in Example 6. For TLC analysis, CH2Cl2/EtOH/H2O/HOAc 49:49:1:1 was used as the solvent. The plates were visualized with short-wave UV light and ninhydrin as in Example 6.
(§2) HPLC techniques were used to monitor the decarboxylation of substituted tryptophans. Mass spectral analysis of the collected HPLC peaks was used to confirm the identity of several tryptamine derivatives, as shown in Table 5.

[2] = target: T2, tryptophan decarboxylase TDC1 (Camptotheca acuminata, UniProt P93082); assay: Substrate screen for tryptophan decarboxylation, TDC1; assay type: biochemical, C. accuminata; design: key: +: a clear ninhydrin-positive spot at the Rf of standard tryptophan derivatives after 16-65 h; (+): a weak spot in the product region; −: no product observed; NR: experiment not run; conditions: tryptophan derivative, PLP, pH 7.5, 37° C.
T2 construct: made in house; host or cells: E. coli DH5α (pKK233 plasmid from C. Nessler)
T2 sequence (P93082 1-502): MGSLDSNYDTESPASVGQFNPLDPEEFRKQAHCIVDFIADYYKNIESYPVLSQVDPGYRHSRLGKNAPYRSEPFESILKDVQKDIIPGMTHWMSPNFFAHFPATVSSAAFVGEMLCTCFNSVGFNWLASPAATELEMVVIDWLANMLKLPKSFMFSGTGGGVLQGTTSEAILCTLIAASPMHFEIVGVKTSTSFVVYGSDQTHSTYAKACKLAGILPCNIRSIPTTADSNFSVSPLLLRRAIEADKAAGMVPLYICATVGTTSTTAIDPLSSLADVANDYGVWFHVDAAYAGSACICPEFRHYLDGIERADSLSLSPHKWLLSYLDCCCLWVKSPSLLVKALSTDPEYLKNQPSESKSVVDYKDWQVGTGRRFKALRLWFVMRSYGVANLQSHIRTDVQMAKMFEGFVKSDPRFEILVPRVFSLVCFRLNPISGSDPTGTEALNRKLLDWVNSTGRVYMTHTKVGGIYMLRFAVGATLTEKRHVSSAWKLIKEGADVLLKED
Description: as §1, §2

[3] = target: T3, tryptophan decarboxylase TDC2 (Camptotheca acuminata, UniProt P93083); assay: Substrate screen for tryptophan decarboxylation, TDC2; assay type: biochemical, C. accuminata; design: key: +: a clear ninhydrin-positive spot at the Rf of standard tryptophan derivatives after 16-65 h; (+): a weak spot in the product region; −: no product observed; NR: experiment not run; conditions: tryptophan derivative, PLP, pH 7.5, 37° C.
T3 construct: made in house; host or cells: E. coli DH5α (pKK233 plasmid from C. Nessler)
T3 sequence (P93083 1-498): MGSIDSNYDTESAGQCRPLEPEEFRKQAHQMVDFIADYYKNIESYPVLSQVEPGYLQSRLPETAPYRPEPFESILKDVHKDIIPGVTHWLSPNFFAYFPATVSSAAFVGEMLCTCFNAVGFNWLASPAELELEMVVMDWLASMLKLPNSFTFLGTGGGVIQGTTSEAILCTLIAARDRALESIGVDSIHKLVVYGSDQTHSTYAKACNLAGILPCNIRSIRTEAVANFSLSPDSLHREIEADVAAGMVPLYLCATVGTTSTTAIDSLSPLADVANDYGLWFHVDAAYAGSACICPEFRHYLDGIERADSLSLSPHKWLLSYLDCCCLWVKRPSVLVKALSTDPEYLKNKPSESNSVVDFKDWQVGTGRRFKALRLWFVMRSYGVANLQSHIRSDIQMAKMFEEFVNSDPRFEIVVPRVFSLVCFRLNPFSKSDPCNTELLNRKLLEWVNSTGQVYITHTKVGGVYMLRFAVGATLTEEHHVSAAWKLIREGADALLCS
Description: as §1, §2

[4] = target: T4, pig kidney aromatic amino acid decarboxylase (pkAAAD) (Sus scrofa, UniProt P80041); assay: Substrate screen for tryptophan decarboxylation, pkAAAD; assay type: biochemical; design: key: +: a clear ninhydrin-positive spot at the Rf of standard tryptophan derivatives after 16-65 h; (+): a weak spot in the product region; −: no product observed; NR: experiment not run; conditions: tryptophan derivative, PLP, pH 7.5, 37° C.
T4 construct: Frozen tissue was partially thawed in lysis buffer, then it was extracted and partially purified; from tissue; host or cells: pig kidney
T4 sequence (P80041 1-486): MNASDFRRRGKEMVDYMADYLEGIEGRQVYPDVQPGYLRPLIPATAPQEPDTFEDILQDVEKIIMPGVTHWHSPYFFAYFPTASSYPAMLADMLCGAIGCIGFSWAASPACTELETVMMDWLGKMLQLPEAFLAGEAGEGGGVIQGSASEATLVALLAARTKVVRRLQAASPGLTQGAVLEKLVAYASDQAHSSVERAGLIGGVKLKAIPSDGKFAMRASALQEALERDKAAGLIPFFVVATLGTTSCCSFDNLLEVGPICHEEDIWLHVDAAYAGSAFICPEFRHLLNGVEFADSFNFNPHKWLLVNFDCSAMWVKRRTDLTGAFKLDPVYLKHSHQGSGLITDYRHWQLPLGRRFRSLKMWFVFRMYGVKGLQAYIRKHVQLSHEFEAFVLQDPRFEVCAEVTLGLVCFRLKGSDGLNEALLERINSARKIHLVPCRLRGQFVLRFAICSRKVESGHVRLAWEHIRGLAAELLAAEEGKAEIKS

[5] = Decarboxylase activity of the enzyme preparations (Ehrlich's reagent); assay type: biochemical
Description: Tryptophan synthase activity was assayed by monitoring the increase in absorbance at 290 nm of a mixture containing serine, indole and PLP (Higgins, W., et al., Biochemistry, 1979, 18, 4827). TnA-catalyzed tryptophan synthesis was also measured by the 290 nm assay, while the tryptophan lyase reaction rate was measured by monitoring the reduction in NADH in reaction mixtures containing L-tryptophan and lactate dehydrogenase, indicating the amount of pyruvate released. Tryptophan decarboxylase was assayed colorimetrically by monitoring the sabsorbance at 580 nm produced by serotonin (AAADs) or tryptamine (TDCs) following treatment of reaction aliquots with Ehrlich's reagent (4-N,N-(dimethyl)aminobenzaldehyde in ethanolic HCl; Nakazawa, H.; Kumagi, H.; Yamada, H. Biochem Biophys. Res. Commun., 1974, 61, 75-82). Serotonin could be detected with approximately 5-fold higher sensitivity by this method as compared with tryptamine. The Ehrlich reagent assay using a microtiter plate format for simultaneous analysis of multiple enzyme samples may also be used. HPLC analysis was performed on acid-quenched reaction aliquots by using a base-deactivated C8 reversed-phase support (Shandon Hypersil BD8). HPLC analysis of acid-quenched aliquots permitted calculation of a rate ratio of 4.5 to 1 for pkAAAD-catalyzed DOPA decarboxylation relative to that of L-5-hydroxytryptophan, in good agreement with the accepted ratio of approximately 5:1. (See Sourkes, T. L. Methods Enzymol., 1987, 142, 170-178, which is incorporated herein by reference.)
A mixture (0.95 mL) containing L-5-hydroxytryptophan (2 mM), PLP (0.25 mM) and pH 7.5 KPi buffer (44 mM) was warmed to 37° C., then 50 μL of enzyme was added. Reaction aliquots were quenched in microcentrifuge capsules containing 50 μL each of 6M HCl to quench the enzyme reaction at 2, 5, and 20 min. Quenched aliquots were heated at 50° C. for 40 min with 750 μL each of Ehrlich's reagent (2:24:74 w/v/v […]: conc HCl: ethanol). Absorbance was read at 580-nm and compared with standards of serotonin (10-250 μM) or tryptamine (50 to 2000 μM).
Decarboxylase enzyme activity was determined using L-5-hydroxytryptophan as the substrate unless otherwise stated.

[6] = Table 2, L-5-hydroxytryptophan as substrate

## N[C@@H](Cc1c[nH]c2ccc(CO)cc12)C(=O)O [L-5-(hydroxymethyl)-trp]
[1]
  SynAAAD (decarboxylation substrate screen): −

## COC(=O)Nc1ccc2[nH]cc(C[C@H](N)C(=O)O)c2c1 [L-5-(methoxycarbonyl)-amino-trp, 5-(Methoxycarbonyl)amino-L-tryptophan]
[2]
  TDC1 (decarboxylation substrate screen): +
[3]
  TDC2 (decarboxylation substrate screen): +
[1]
  SynAAAD (decarboxylation substrate screen): +
[4]
  pkAAAD (decarboxylation substrate screen): −

## COc1ccc2[nH]cc(CC(N)C(=O)O)c2c1 (racemic) [DL-5-methoxy-trp]
[1]
  SynAAAD (decarboxylation substrate screen): (+)

## NC(Cc1c[nH]c2cccc(F)c12)C(=O)O (racemic) [DL-4-fluoro-trp]
[2]
  TDC1 (decarboxylation substrate screen): +
[3]
  TDC2 (decarboxylation substrate screen): +
[1]
  SynAAAD (decarboxylation substrate screen): (+)
[4]
  pkAAAD (decarboxylation substrate screen): +

## Cc1cccc2[nH]cc(CC(N)C(=O)O)c12 (racemic) [DL-4-methyl-trp]
[2]
  TDC1 (decarboxylation substrate screen): +
[3]
  TDC2 (decarboxylation substrate screen): +
[1]
  SynAAAD (decarboxylation substrate screen): +
[4]
  pkAAAD (decarboxylation substrate screen): −

## NC(Cc1c[nH]c2ccc(F)cc12)C(=O)O (racemic) [DL-5-fluoro-trp]
[2]
  TDC1 (decarboxylation substrate screen): +
[3]
  TDC2 (decarboxylation substrate screen): (+)
[1]
  SynAAAD (decarboxylation substrate screen): (+)
[4]
  pkAAAD (decarboxylation substrate screen): −

## Cc1cccc2c(CC(N)C(=O)O)c[nH]c12 (racemic) [DL-7-methyl-trp]
[2]
  TDC1 (decarboxylation substrate screen): +
[3]
  TDC2 (decarboxylation substrate screen): +
[1]
  SynAAAD (decarboxylation substrate screen): (+)
[4]
  pkAAAD (decarboxylation substrate screen): −

## Cc1ccc2[nH]cc(CC(N)C(=O)O)c2c1 (racemic) [DL-5-methyl-trp]
[2]
  TDC1 (decarboxylation substrate screen): +
[3]
  TDC2 (decarboxylation substrate screen): +
[1]
  SynAAAD (decarboxylation substrate screen): −
[4]
  pkAAAD (decarboxylation substrate screen): −

## NC(Cc1c[nH]c2ncccc12)C(=O)O (racemic) [DL-7-aza-trp]
[1]
  SynAAAD (decarboxylation substrate screen): −
[4]
  pkAAAD (decarboxylation substrate screen): −

## N[C@@H](Cc1c[nH]c2ccc(O)cc12)C(=O)O [L-5-hydroxy-trp, L-5-hydroxytryptophan, reference compound]
[2]
  TDC1 (decarboxylation substrate screen): +
[1]
  SynAAAD (decarboxylation substrate screen): +
[4]
  pkAAAD (decarboxylation substrate screen): +

## Cc1ccc2c(CC(N)C(=O)O)c[nH]c2c1 (racemic) [DL-6-methyl-trp]
[2]
  TDC1 (decarboxylation substrate screen): +
[3]
  TDC2 (decarboxylation substrate screen): +
[1]
  SynAAAD (decarboxylation substrate screen): (+)
[4]
  pkAAAD (decarboxylation substrate screen): −

B1: synAAAD: enzyme from synthetic gene optimized for E. coli expression, based on the pkAAAD protein sequence (protein, UniProt P80041 1-486, looked up)
Aromatic-L-amino-acid …: MNASDFRRRGKEMVDYMADYLEGIEGRQVYPDVQPGYLRPLIPATAPQEPDTFEDILQDVEKIIMPGVTHWHSPYFFAYFPTASSYPAMLADMLCGAIGCIGFSWAASPACTELETVMMDWLGKMLQLPEAFLAGEAGEGGGVIQGSASEATLVALLAARTKVVRRLQAASPGLTQGAVLEKLVAYASDQAHSSVERAGLIGGVKLKAIPSDGKFAMRASALQEALERDKAAGLIPFFVVATLGTTSCCSFDNLLEVGPICHEEDIWLHVDAAYAGSAFICPEFRHLLNGVEFADSFNFNPHKWLLVNFDCSAMWVKRRTDLTGAFKLDPVYLKHSHQGSGLITDYRHWQLPLGRRFRSLKMWFVFRMYGVKGLQAYIRKHVQLSHEFEAFVLQDPRFEVCAEVTLGLVCFRLKGSDGLNEALLERINSARKIHLVPCRLRGQFVLRFAICSRKVESGHVRLAWEHIRGLAAELLAAEEGKAEIKS
modifications: codon-optimized synthetic gene
[5]; [6]
  Crude specific activity: 0.18 units/mg
  Purified specific activity: 0.3 Units/mg
[5]; Table 3, decarboxylases
  Crude specific activity: 0.18 units/mg
[5]; crude extracts
  specific activity in crude extracts: 0.1-0.2 units/mg

B2: pkAAAD: aromatic amino acid decarboxylase extracted from pig kidney tissue, E.C. 4.1.1.28 (protein, UniProt P80041 1-486, looked up)
Aromatic-L-amino-acid …: MNASDFRRRGKEMVDYMADYLEGIEGRQVYPDVQPGYLRPLIPATAPQEPDTFEDILQDVEKIIMPGVTHWHSPYFFAYFPTASSYPAMLADMLCGAIGCIGFSWAASPACTELETVMMDWLGKMLQLPEAFLAGEAGEGGGVIQGSASEATLVALLAARTKVVRRLQAASPGLTQGAVLEKLVAYASDQAHSSVERAGLIGGVKLKAIPSDGKFAMRASALQEALERDKAAGLIPFFVVATLGTTSCCSFDNLLEVGPICHEEDIWLHVDAAYAGSAFICPEFRHLLNGVEFADSFNFNPHKWLLVNFDCSAMWVKRRTDLTGAFKLDPVYLKHSHQGSGLITDYRHWQLPLGRRFRSLKMWFVFRMYGVKGLQAYIRKHVQLSHEFEAFVLQDPRFEVCAEVTLGLVCFRLKGSDGLNEALLERINSARKIHLVPCRLRGQFVLRFAICSRKVESGHVRLAWEHIRGLAAELLAAEEGKAEIKS
[5]; [6]
  Crude specific activity: 0.05 units/mg
  Purified specific activity: 0.2 Units/mg
[5]; Table 3, decarboxylases
  Crude specific activity: 0.05 units/mg
